Test results taken from ChEMBL document CHEMBL1201862, “PubChem BioAssay data set” (2004).
Active and inactive are the calls of the source.

Assays:
[1] = (§1) Counterscreen for antagonists of the orexin 1 receptor (OX1R; HCRTR1): Fluorescence-based cell-based high throughput dose response assay to identify antagonists of the parental CHO cell line. [Related pubchem assays (depositor defined):AID434989, AID435008, AID463079, AID485270, AID492963, AID492964, AID492965, AID493232, AID504699, AID504701]; format: functional
CHO-K1 = test: as §1, with “Homogeneous time resolved fluorescence (HTRF)-based” for “Fluorescence-based”, “cell-based” for “cell-based high throughput”, “CHO-K1” for “CHO”; format: functional; details: Cricetulus griseus;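 also: potency for inhibition of ATP-stimulated IP1 production as antagonists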
Orexin receptor type 2 [2] = molecular target: T1, Orexin receptor type 2 (Homo sapiens, UniProt O43614); test: Counterscreen assay for antagonists of the orexin 1 receptor (OX1R; HCRTR1): Homogeneous Time Resolved Fluorescence (HTRF)-based cell-based dose response assay for antagonists of the orexin 2 receptor (OX2R; HCRTR2), run by assay provider.; format: functional
T1 sequence (O43614 whole entry): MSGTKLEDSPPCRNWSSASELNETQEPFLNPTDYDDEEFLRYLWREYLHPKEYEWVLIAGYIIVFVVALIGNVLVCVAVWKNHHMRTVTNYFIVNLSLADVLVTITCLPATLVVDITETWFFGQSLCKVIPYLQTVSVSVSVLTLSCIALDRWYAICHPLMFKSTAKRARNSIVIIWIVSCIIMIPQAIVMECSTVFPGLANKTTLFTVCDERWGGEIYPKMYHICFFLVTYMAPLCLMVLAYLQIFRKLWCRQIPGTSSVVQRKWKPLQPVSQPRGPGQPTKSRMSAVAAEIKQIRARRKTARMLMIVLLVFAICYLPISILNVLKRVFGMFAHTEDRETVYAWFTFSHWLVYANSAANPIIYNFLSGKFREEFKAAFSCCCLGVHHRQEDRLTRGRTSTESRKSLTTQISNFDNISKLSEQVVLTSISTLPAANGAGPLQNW

[3] = molecular target: T2, Mannose-6-phosphate isomerase (Homo sapiens, UniProt P34949); test: inhibitors of human PMI, primary screen, biochemical, fluorescence intensity, coupled assay (AID 1209)
T2 sequence (P34949 whole entry): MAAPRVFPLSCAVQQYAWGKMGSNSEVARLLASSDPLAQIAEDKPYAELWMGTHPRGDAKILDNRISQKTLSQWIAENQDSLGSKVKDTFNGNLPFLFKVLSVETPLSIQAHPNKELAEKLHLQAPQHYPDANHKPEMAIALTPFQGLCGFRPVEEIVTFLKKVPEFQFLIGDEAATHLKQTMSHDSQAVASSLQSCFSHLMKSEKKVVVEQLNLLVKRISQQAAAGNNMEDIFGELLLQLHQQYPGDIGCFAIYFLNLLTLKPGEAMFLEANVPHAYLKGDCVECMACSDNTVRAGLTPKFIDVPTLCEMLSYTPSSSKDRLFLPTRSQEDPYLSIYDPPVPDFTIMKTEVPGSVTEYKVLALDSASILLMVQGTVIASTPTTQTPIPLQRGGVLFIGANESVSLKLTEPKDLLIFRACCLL

[4] = molecular target: T3, Orexin/Hypocretin receptor type 1 (Homo sapiens, UniProt O43613); test: (§2) Fluorescence-based cell-based high throughput dose response assay for antagonists of the orexin 1 receptor (OX1R; HCRTR1). [Related pubchem assays (depositor defined):AID434989, AID435008, AID463079, AID485270, AID492963, AID492964, AID492965, AID493232, AID504717, AID504718]; format: functional
T3 sequence (O43613 whole entry): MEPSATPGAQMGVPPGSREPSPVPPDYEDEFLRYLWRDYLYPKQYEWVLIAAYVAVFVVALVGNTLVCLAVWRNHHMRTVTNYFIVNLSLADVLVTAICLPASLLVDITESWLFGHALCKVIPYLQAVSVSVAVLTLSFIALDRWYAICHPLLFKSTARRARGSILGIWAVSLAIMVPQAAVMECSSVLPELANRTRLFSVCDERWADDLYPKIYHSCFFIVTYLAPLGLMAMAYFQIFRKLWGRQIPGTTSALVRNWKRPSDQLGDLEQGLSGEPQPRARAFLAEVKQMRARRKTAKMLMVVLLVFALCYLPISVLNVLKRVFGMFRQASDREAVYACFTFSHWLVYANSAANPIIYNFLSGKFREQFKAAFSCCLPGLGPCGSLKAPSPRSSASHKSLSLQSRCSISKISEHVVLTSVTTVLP

[5] = molecular target: T3, Orexin/Hypocretin receptor type 1; test: as §2, with “Homogeneous Time Resolved Fluorescence (HTRF)-based” for “Fluorescence-based”; format: functional
Orexin receptor type 2 [6] = molecular target: T1, Orexin receptor type 2; test: Counterscreen assay for antagonists of the orexin 1 receptor (OX1R; HCRTR1): Fluorescence-based cell-based dose response assay for antagonists of the orexin 2 receptor (OX2R; HCRTR2), run by assay provider.; format: functional
[7] = molecular target: Photoreceptor-specific nuclear receptor (Homo sapiens, UniProt Q9Y5X4); test: NR2E3 inverse agonists, dose response, biochemical, TR-FRET (AID 463256); format: functional
[8] = molecular target: Peroxisome proliferator-activated receptor gamma/Nuclear receptor corepressor 2 (Homo sapiens, UniProt P37231+Q9Y618); test: Counterscreen for NR2E3 inverse agonists: TR-FRET-based biochemical high throughput dose response assay to identify inverse agonists of the interaction between peroxisome proliferator-activated receptor gamma (PPARg) and nuclear receptor co-repressor 2 (NCOR2).; format: functional
HT-1080 = test: cytotoxicity in HT1080 fibrosarcoma cells, cell-based, fluorescence readout (AID 620); format: functional; details: Homo sapiens
cells [9] = test: cells
[10] = molecular target: T4, Oxysterols receptor LXR-beta (Homo sapiens, UniProt P55055); format: functional, cell-based;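 also: Cell-based luminescence dose-response assay of agonist activity at LXR, run as a confirmatory counterscreen to a daf-12 agonist screen; HEK293 cells with Gal4-LXR fusion and GAL4-driven luciferase reporter; agonist potency from rising luciferase signal of a Gal4-LXR reporter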
T4 sequence (P55055 whole entry): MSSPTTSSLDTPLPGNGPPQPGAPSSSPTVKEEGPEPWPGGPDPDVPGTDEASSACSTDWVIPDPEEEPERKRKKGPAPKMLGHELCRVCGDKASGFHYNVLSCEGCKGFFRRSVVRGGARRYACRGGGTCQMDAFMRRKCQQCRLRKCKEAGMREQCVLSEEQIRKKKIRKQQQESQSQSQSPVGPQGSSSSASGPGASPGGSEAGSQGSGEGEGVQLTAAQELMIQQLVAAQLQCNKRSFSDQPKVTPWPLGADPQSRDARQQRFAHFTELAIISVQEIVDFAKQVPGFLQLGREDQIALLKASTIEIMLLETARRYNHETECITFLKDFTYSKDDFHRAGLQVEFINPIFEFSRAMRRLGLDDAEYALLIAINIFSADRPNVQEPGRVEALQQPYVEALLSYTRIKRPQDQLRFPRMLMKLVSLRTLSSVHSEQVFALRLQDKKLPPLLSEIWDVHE

[11] = molecular target: Luciferin 4-monooxygenase (Photinus pyralis, UniProt P08659); test: Counter Screen for Luciferase-based Assay Positives. [Related pubchem assays: 620, 618, 411 ]
[12] = inhibitors of SNCA 5'UTR-driven translation, confirmation, luminescence, H4 neuroglioblastoma cells, dose confirmation (AID 2454); format: functional, cell-based;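 also: H4 neuroglioblastoma cells carrying an alpha-synuclein 5'UTR luciferase reporter; potency for inhibition of the luciferase signal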
BJ [13] = test: cytotoxicity toward BJ-TERT-LT-ST fibroblasts, dose response, cell-based, RAS-independent, luminescence (AID 1935); format: functional; details: Homo sapiens;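 also: BJ fibroblasts immortalized with TERT plus LT and ST oncogenes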
cells [14] = format: functional, cell-based
[15] = cytotoxicity toward DRD oncogenic fibroblasts, dose response, cell-based, non-viral oncogenic, luminescence (AID 1934); format: functional; details: Homo sapiens
[16] = inhibitors of SNCA 5'UTR-driven reporter translation, confirmation, H4 neuroglioma cells, luminescence (AID 1988); format: functional, cell-based
BJ [17] = test: cytotoxicity toward BJ-TERT fibroblasts, dose response, cell-based, RAS-independent, luminescence (AID 1933); format: functional; details: Homo sapiens
[18] = luciferase reporter signal reduction – luminescence, H4-C neuroglioblastoma cells, dose response (AID 2458); format: functional, cell-based;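 also: H4 neuroglioblastoma cells stably carrying a luciferase reporter gene fusion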
BJ [19] = test: cells; format: functional, cell-based; details: Homo sapiens
[20] = molecular target: T2, Mannose-6-phosphate isomerase; test: human PMI inhibitors, high substrate, primary screen, biochemical, fluorescence intensity, high mannose 6-phosphate (AID 1220)
[21] = Luminescence Cell-Based Dose Retest to Confirm Inhibitors of Cancer Stem Cells. [Related pubchem assays (depositor defined):AID2717, AID2721]; format: functional; details: Homo sapiens
Aspartyl aminopeptidase = molecular target: T5, Aspartyl aminopeptidase (Plasmodium falciparum 3D7, UniProt Q8I2J3)
T5 sequence (Q8I2J3 whole entry): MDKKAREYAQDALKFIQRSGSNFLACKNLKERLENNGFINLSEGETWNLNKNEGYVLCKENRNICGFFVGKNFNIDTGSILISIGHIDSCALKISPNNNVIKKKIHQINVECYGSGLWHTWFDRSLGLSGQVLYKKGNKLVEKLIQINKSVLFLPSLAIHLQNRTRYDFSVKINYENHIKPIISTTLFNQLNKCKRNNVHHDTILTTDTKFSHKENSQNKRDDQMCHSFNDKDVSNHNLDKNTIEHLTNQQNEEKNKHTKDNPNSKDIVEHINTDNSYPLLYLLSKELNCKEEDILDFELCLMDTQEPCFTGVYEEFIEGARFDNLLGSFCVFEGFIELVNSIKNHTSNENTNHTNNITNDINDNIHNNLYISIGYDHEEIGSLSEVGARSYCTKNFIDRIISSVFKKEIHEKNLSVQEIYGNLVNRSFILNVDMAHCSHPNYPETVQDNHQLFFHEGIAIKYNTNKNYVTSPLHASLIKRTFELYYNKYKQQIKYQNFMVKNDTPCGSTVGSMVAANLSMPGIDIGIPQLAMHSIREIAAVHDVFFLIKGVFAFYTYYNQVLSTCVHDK

Procathepsin L = Procathepsin L (Homo sapiens, UniProt P07711)
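For AC50 in this document: cells exposed to compound for roughly 70 hours or longer before luminescence read.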

Chain of Peroxisome proliferator-activated receptor gamma/Nuclear receptor corepressor 2 (P37231 whole entry): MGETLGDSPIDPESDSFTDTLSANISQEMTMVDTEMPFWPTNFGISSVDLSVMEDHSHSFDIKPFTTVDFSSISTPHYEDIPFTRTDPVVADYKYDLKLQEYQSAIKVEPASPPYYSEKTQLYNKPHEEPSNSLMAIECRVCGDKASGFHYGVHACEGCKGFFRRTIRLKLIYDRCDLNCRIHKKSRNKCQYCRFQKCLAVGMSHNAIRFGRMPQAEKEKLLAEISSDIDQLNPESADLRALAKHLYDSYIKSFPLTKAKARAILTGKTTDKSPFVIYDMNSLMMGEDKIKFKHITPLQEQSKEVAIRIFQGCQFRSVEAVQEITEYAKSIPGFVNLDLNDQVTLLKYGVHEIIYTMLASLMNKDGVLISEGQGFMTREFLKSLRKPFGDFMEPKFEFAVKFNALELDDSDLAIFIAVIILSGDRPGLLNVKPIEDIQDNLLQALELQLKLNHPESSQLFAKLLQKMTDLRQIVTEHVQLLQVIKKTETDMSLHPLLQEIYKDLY
Chain of Peroxisome proliferator-activated receptor gamma/Nuclear receptor corepressor 2 (Q9Y618 whole entry): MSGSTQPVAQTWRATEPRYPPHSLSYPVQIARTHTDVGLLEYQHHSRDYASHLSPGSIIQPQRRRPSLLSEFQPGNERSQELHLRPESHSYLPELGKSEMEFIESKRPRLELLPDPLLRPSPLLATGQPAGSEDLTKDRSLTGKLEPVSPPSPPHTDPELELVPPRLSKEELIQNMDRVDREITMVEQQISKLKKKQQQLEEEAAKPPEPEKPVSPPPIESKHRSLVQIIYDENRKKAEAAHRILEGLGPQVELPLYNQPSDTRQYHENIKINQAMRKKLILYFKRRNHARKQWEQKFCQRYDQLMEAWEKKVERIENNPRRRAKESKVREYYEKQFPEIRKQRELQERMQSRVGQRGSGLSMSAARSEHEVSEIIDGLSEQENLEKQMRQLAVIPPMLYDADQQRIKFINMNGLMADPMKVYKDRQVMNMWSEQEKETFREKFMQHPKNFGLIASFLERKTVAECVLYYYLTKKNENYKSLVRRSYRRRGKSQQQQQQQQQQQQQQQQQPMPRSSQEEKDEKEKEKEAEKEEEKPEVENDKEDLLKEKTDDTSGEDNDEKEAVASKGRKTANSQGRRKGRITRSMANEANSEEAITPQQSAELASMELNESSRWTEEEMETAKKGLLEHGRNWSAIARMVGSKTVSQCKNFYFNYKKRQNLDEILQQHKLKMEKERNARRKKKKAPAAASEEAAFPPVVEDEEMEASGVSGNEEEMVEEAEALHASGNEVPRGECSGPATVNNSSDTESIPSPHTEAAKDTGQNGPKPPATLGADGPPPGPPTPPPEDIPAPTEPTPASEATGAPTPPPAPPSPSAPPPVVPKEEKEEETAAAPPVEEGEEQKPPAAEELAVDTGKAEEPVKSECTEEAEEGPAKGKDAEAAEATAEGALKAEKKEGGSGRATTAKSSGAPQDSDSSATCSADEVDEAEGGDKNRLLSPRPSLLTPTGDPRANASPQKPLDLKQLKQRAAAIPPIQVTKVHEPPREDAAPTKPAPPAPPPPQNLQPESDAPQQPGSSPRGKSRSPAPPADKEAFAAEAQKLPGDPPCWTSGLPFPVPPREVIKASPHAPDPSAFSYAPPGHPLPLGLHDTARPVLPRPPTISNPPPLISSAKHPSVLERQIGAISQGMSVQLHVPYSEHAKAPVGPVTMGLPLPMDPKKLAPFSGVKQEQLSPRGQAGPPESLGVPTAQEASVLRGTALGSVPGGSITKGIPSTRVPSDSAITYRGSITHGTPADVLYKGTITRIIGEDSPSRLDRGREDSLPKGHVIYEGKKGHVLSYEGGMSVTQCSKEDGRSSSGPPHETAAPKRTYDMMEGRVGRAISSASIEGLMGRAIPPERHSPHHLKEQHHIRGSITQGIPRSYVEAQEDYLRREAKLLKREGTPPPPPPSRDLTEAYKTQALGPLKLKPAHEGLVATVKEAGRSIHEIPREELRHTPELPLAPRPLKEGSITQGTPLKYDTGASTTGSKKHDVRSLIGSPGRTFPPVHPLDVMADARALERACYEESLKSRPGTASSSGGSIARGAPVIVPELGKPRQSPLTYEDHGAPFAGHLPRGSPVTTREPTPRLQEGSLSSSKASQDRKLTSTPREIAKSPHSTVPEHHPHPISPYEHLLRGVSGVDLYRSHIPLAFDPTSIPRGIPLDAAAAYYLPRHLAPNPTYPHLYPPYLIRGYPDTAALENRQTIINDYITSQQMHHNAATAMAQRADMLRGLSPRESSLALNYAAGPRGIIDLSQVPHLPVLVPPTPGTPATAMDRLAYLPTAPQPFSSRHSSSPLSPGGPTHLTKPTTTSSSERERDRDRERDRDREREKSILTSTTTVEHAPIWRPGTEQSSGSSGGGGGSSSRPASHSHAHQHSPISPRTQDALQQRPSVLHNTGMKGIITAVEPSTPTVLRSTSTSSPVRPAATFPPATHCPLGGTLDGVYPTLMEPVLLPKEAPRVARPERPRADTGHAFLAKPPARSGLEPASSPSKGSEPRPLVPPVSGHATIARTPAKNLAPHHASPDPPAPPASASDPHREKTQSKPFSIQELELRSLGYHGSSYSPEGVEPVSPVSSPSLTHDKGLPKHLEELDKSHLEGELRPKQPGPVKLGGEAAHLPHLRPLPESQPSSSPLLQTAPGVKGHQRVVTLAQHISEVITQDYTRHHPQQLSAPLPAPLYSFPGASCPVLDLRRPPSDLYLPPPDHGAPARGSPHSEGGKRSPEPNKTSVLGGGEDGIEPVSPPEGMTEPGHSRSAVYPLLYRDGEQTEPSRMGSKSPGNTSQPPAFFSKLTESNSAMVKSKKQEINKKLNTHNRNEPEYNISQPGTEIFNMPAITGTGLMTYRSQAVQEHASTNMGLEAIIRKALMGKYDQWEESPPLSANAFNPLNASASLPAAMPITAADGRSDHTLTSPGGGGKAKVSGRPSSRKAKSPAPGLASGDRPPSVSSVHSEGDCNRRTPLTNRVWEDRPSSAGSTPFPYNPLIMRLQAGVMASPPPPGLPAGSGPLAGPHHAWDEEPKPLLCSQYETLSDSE
Chain of Photoreceptor-specific nuclear receptor (Q9Y5X4 whole entry): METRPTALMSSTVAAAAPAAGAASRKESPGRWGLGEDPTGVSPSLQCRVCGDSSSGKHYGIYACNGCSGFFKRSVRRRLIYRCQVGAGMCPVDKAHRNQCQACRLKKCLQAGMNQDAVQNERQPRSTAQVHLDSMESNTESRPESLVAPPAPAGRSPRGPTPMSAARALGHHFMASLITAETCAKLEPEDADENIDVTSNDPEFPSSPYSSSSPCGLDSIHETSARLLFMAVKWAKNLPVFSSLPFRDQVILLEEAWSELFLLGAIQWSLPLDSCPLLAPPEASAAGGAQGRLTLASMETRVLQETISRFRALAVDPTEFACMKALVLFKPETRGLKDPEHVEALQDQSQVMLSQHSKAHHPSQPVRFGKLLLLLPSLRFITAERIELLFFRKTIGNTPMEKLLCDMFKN
Chain of Luciferin 4-monooxygenase (P08659 whole entry): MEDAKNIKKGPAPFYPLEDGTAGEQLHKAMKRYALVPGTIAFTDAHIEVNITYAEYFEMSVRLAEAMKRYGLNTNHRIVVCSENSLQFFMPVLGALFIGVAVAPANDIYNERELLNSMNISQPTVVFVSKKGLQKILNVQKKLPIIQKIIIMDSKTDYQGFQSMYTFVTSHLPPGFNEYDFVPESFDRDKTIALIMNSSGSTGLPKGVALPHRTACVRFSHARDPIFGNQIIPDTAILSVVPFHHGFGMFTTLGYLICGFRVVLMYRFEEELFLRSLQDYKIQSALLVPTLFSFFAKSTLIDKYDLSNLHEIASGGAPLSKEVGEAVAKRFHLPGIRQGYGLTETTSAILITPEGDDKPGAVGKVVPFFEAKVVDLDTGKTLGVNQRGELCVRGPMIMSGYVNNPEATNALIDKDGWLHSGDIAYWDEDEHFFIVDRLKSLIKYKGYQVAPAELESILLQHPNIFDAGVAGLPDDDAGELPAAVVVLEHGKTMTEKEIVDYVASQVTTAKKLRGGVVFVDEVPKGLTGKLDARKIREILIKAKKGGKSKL
Chain of Procathepsin L (P07711 whole entry): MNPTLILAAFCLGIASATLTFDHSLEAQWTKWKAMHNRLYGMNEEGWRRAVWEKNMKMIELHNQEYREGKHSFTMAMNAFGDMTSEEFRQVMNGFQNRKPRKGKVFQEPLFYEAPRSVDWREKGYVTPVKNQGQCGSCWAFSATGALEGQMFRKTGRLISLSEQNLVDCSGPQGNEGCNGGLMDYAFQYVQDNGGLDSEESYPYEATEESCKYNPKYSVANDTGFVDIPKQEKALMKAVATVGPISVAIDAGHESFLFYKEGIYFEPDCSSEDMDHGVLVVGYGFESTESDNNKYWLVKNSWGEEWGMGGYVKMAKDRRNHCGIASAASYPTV

In the case of `CCc1c(C)sc(N=C(S)Nc2nc(C)cc(C)n2)c1C(=O)OC`, the IC50 [1] is reported as > 49.8 µM (inactive), the IC50 (CHO-K1) is reported as > 66.2 µM (inactive) and the IC50 (Orexin receptor type 2 [2]) is reported as > 50 µM (inactive). For the same compound, the IC50 [3] was > 50 µM (not active), the IC50 [4] was 4.29 µM (active) and the IC50 [5] was 2.23 µM (active). The IC50 (Orexin receptor type 2 [6]) was 15 µM (inactive).
In the case of `COc1cnn(-c2ccccc2)c(=O)c1SCc1ccc(Cl)c(Cl)c1`, the IC50 [7] is reported as 5 µM (active) and the IC50 [8] is reported as 5.85 µM (active).
In the case of `Cc1cc(C)c2c(N)c(C(=O)Nc3nccs3)sc2n1`, the EC50 (HT-1080) is reported as > 50 µM (not active), the EC50 (cells [9]) is reported as > 67.5 µM (inactive) and the EC50 [10] is reported as > 67.5 µM (inactive). For the same compound, the EC50 [11] was > 100 µM (not active).
For `COC(=O)c1ccc(C)c(NS(=O)(=O)c2ccc(OC)cc2)c1`, the EC50 [12] was 0.834 µM (active), the EC50 (BJ [13]) was 0.353 µM (inconclusive) and the EC50 (cells [14]) was 1.02 µM (active). The EC50 [15] was 0.682 µM (active), the EC50 [16] was < 0.1 µM (active) and the EC50 (BJ [17]) was 0.689 µM (inconclusive). The EC50 [18] was > 12 µM (not active) and the EC50 (BJ [19]) was 1.61 µM (active).
For `O=C(NCCO)c1cc2ccccc2cc1O`, the IC50 [3] was > 50 µM (not active).
For `CCOC(=O)N1CCN(CCC(=O)c2ccc(Cl)cc2)CC1`, the IC50 [20] was > 50 µM (not active) and the AC50 [21] was 12 µM (active).
For `CS(=O)(=O)N(CC(=O)N1CCC(C(N)=O)CC1)c1ccc(Oc2ccccc2)cc1`, the IC50 [7] was 1.05 µM (active) and the IC50 [8] was 0.792 µM (active).
With `C=CCn1c(C)cc(C(=O)CSc2ccc(NC(C)=O)cc2)c1C` the EC50 (HT-1080) was > 50 µM (not active) and the EC50 [11] was 0.77 µM (active).
For `O=C(CSc1ccc(-c2cccs2)nn1)N1CCCCCC1`, the IC50 [7] was 4.73 µM (active) and the IC50 [8] was > 39.8 µM (not active).
In the case of `COc1cc([N+](=O)[O-])ccc1NC(=O)Nn1cnnc1`, the IC50 (Aspartyl aminopeptidase) is reported as 0.353 µM (active) and the IC50 (Procathepsin L) is reported as > 59.6 µM (not active).
